Columns and labels:
[1] = In vitro liver microsomal stability assay; format: in vitro ADME; conditions: 1 mg per mL liver microsome protein, NADPH-generating system, 5 microgram per mL compound, 37° C., 0-60 min, LC/MS/MS
Description: Liver microsomal stability assays are conducted at 1 mg per mL liver microsome protein with an NADPH-generating system in 2% NaHCO3 (2.2 mM NADPH, 25.6 mM glucose 6-phosphate, 6 units per mL glucose 6-phosphate dehydrogenase and 3.3 mM MgCl2). Test compounds are prepared as solutions in 20% acetonitrile-water and added to the assay mixture (final assay concentration 5 microgram per mL) and incubated at 37° C. Final concentration of acetonitrile in the assay should be <1%. Aliquots ([…]) are taken out at times 0, 15, 30, 45, and 60 min, and diluted with ice cold acetonitrile (200 μL) to stop the reactions. Samples are centrifuged at 12,000 RPM for 10 min to precipitate proteins. Supernatants are transferred to microcentrifuge tubes and stored for LC/MS/MS analysis of the degradation half-life of the test compounds. […] For example, the degradation half-life of Example 9 was increased by 20% as compared to non-isotopically enriched agomelatine.

melatonin receptor = conditions: relative to agomelatine; cited from earlier work
[2] = in vivo; cited from earlier work

## [2H]C([2H])([2H])Oc1ccc2cccc(C([2H])([2H])C([2H])([2H])NC(=O)C([2H])([2H])[2H])c2c1 [Example 9, d10-N-[2-(7-Methoxy-naphthalen-1-yl)-ethyl]-acetamide]
[1]
  increase in the degradation half-life as compared to the non-isotopically enriched drug (agomelatine): 20%

## CC(=O)NCCc1cccc2ccc(O)cc12 [S 21517]
Melatonin receptor
  fold less potency for the melatonin receptor than the parent compound (agomelatine): 100 fold

## COc1ccc2cccc(CCNC(C)=O)c2c1 [agomelatine, N-[2-(7-Methoxy-naphthalen-1-yl)-ethyl]-acetamide]
[2]
  terminal elimination half-life: 2.3 h

From US20080280991A1, “SUBSTITUTED NAPHTHALENES” (AUSPEX PHARMACEUTICALS, INC., priority 2007, published 2008)
